Laboratory results published in ChEMBL document CHEMBL1201862, “PubChem BioAssay data set” (2004).
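Cultured in 96-well plates, cells were exposed to test compound for 48 hours across five concentrations. Here, GI50 denotes the concentration required for 50% inhibition of growth.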 Calls of active or inactive are those of the source. Rule as the data show it: active = GI50 up to about 1.1 µM and inactive = higher.

What was measured:
Test in all cases: NCI-60 cell line screen, 48 h
EKVX = system: EKVX
KM12 = system: KM12
UO-31 = system: UO-31
SNB-19 = system: SNB-19
LOX IMVI = system: LOX IMVI
OVCAR-8 = system: OVCAR-8
HOP-62 = system: HOP-62
A549 = system: A549
RXF 393 = system: RXF 393
U-251 = system: U-251
NCI-H522 = system: NCI-H522
SW-620 = system: SW-620
CAKI-1 = system: CAKI-1
CCRF-CEM = system: CCRF-CEM
M14 = system: M14
SK-MEL-5 = system: SK-MEL-5
SNB-75 = system: SNB-75
SR = system: SR

SMILES | GI50 (EKVX) | GI50 (KM12) | GI50 (UO-31) | GI50 (SNB-19) | GI50 (LOX IMVI) | GI50 (OVCAR-8) | GI50 (HOP-62) | GI50 (A549) | GI50 (RXF 393) | GI50 (U-251) | GI50 (NCI-H522) | GI50 (SW-620) | GI50 (CAKI-1) | GI50 (CCRF-CEM) | GI50 (M14) | GI50 (SK-MEL-5) | GI50 (SNB-75) | GI50 (SR)
COc1cc(/C=C2\Cc3ccccc3C2=O)cc(OC)c1OC | > 100 µM (inactive) | > 100 µM (inactive) | > 100 µM (inactive) | > 100 µM (inactive) | > 100 µM (inactive) | > 100 µM (inactive) | > 100 µM (inactive) | > 100 µM (inactive) | > 100 µM (inactive) | > 100 µM (inactive) | > 100 µM (inactive) | > 100 µM (inactive) | > 100 µM (inactive) | > 100 µM (inactive) | > 100 µM (inactive) | > 100 µM (inactive) | 51.5 µM (inactive) | –
Cc1ccc2oc(=O)cc(CC(=O)O)c2c1 | > 100 µM (inactive) | > 100 µM (inactive) | – | > 100 µM (inactive) | > 100 µM (inactive) | > 100 µM (inactive) | > 100 µM (inactive) | > 100 µM (inactive) | > 100 µM (inactive) | > 100 µM (inactive) | > 100 µM (inactive) | > 100 µM (inactive) | > 100 µM (inactive) | > 100 µM (inactive) | > 100 µM (inactive) | > 100 µM (inactive) | > 100 µM (inactive) | –
Cc1c(C(=O)CC(=O)C(=O)Nc2c(C(C)C)cccc2C(C)C)[n+]([O-])c2ccccc2[n+]1[O-] | 13.8 µM (inactive) | 3.47 µM (inactive) | 16.6 µM (inactive) | 7.73 µM (inactive) | 3.4 µM (inactive) | 2.57 µM (inactive) | 29.7 µM (inactive) | 15.7 µM (inactive) | 13.5 µM (inactive) | 3.09 µM (inactive) | 2.25 µM (inactive) | 3.87 µM (inactive) | 22 µM (inactive) | 2.34 µM (inactive) | 3.4 µM (inactive) | 10.4 µM (inactive) | 14.4 µM (inactive) | –
CC(C)(C)C1CCN(C(=O)c2ccccc2)CC1 | > 100 µM (inactive) | > 100 µM (inactive) | > 100 µM (inactive) | > 100 µM (inactive) | > 100 µM (inactive) | > 100 µM (inactive) | > 100 µM (inactive) | 90.6 µM (inactive) | 76 µM (inactive) | > 100 µM (inactive) | 62.7 µM (inactive) | > 100 µM (inactive) | – | > 100 µM (inactive) | > 100 µM (inactive) | 28.8 µM (inactive) | 69 µM (inactive) | 64.6 µM (inactive)
CCCCCCCCC1C(C)c2c([nH]c3ccccc23)C2C(=O)N(c3ccccc3)C(=O)C21 (stereo not given) | 21.1 µM (inactive) | 3.71 µM (inactive) | 15.2 µM (inactive) | – | – | 11.1 µM (inactive) | 21 µM (inactive) | 14 µM (inactive) | 2.38 µM (inactive) | 8.53 µM (inactive) | – | 14.8 µM (inactive) | 14 µM (inactive) | 2.76 µM (inactive) | 14 µM (inactive) | 16.3 µM (inactive) | 19 µM (inactive) | –
CC12OC3(C)OC(=O)C(c4ccccc4)(O1)C3(C)O2 (stereo not given) | > 100 µM (inactive) | > 100 µM (inactive) | > 100 µM (inactive) | > 100 µM (inactive) | > 100 µM (inactive) | > 100 µM (inactive) | – | > 100 µM (inactive) | > 100 µM (inactive) | > 100 µM (inactive) | > 100 µM (inactive) | > 100 µM (inactive) | > 100 µM (inactive) | > 100 µM (inactive) | > 100 µM (inactive) | > 100 µM (inactive) | > 100 µM (inactive) | –
C/C(=N\NS(=O)(=O)c1c(C)cc(C)cc1C)c1ccc[n+]([O-])n1 | 12.4 µM (inactive) | 38.5 µM (inactive) | 21.2 µM (inactive) | > 100 µM (inactive) | – | 19.6 µM (inactive) | > 100 µM (inactive) | 65.2 µM (inactive) | – | 41.7 µM (inactive) | 6.61 µM (inactive) | 8.05 µM (inactive) | 4.78 µM (inactive) | 3.96 µM (inactive) | 7.64 µM (inactive) | 41.9 µM (inactive) | 16.9 µM (inactive) | 22.3 µM (inactive)
COc1ccc2oc(C(=O)O)c3c2c1CCC3 | > 100 µM (inactive) | – | – | > 100 µM (inactive) | > 100 µM (inactive) | > 100 µM (inactive) | > 100 µM (inactive) | > 100 µM (inactive) | > 100 µM (inactive) | > 100 µM (inactive) | – | > 100 µM (inactive) | > 100 µM (inactive) | > 100 µM (inactive) | > 100 µM (inactive) | > 100 µM (inactive) | > 100 µM (inactive) | –
COc1ccc(/N=N/c2c(-c3ccccc3)nn(C(=O)CC(=O)Nc3ccc(OC)cc3)c2-c2ccccc2)cc1 | 71.1 µM (inactive) | > 100 µM (inactive) | > 100 µM (inactive) | 29.9 µM (inactive) | > 100 µM (inactive) | > 100 µM (inactive) | 23.4 µM (inactive) | > 100 µM (inactive) | – | 58.3 µM (inactive) | 61.5 µM (inactive) | > 100 µM (inactive) | > 100 µM (inactive) | 23.7 µM (inactive) | – | > 100 µM (inactive) | 16 µM (inactive) | –
CCn1nc(C)c2c1C(=O)NC(C)C(=O)N2 (stereo not given) | > 100 µM (inactive) | > 10 µM (inactive) | > 100 µM (inactive) | > 100 µM (inactive) | – | > 100 µM (inactive) | – | > 100 µM (inactive) | > 100 µM (inactive) | > 100 µM (inactive) | > 100 µM (inactive) | > 100 µM (inactive) | > 100 µM (inactive) | – | > 100 µM (inactive) | > 100 µM (inactive) | > 100 µM (inactive) | –
O=C1Nc2cc(F)ccc2C1=O | > 100 µM (inactive) | > 100 µM (inactive) | > 100 µM (inactive) | > 100 µM (inactive) | > 100 µM (inactive) | > 100 µM (inactive) | > 100 µM (inactive) | > 100 µM (inactive) | > 100 µM (inactive) | > 100 µM (inactive) | 60.7 µM (inactive) | 73.3 µM (inactive) | > 100 µM (inactive) | > 100 µM (inactive) | > 100 µM (inactive) | > 100 µM (inactive) | > 100 µM (inactive) | –
O=C(O)CCSC(=O)Nc1ccccc1F | > 100 µM (inactive) | > 100 µM (inactive) | > 100 µM (inactive) | > 100 µM (inactive) | > 100 µM (inactive) | – | > 100 µM (inactive) | > 100 µM (inactive) | > 100 µM (inactive) | > 100 µM (inactive) | > 100 µM (inactive) | > 100 µM (inactive) | > 100 µM (inactive) | > 100 µM (inactive) | > 100 µM (inactive) | – | – | > 100 µM (inactive)
O=C1NC(=O)C(=O)C(c2nc3ccccc3s2)C1=O | > 100 µM (inactive) | > 100 µM (inactive) | > 100 µM (inactive) | > 100 µM (inactive) | – | > 100 µM (inactive) | > 100 µM (inactive) | > 100 µM (inactive) | > 100 µM (inactive) | > 100 µM (inactive) | > 100 µM (inactive) | > 100 µM (inactive) | > 100 µM (inactive) | > 100 µM (inactive) | > 100 µM (inactive) | > 100 µM (inactive) | > 100 µM (inactive) | > 100 µM (inactive)
O=C(CC(=O)c1cccc([N+](=O)[O-])c1)C(=O)Nc1nc([N+](=O)[O-])cs1 | > 100 µM (inactive) | > 100 µM (inactive) | > 100 µM (inactive) | > 100 µM (inactive) | > 100 µM (inactive) | > 100 µM (inactive) | > 100 µM (inactive) | > 100 µM (inactive) | > 100 µM (inactive) | > 100 µM (inactive) | 33.3 µM (inactive) | > 100 µM (inactive) | 83.8 µM (inactive) | 47.8 µM (inactive) | > 100 µM (inactive) | > 100 µM (inactive) | – | 83 µM (inactive)
NC(=O)CCC(Nc1c2ccccc2[n+]([O-])c2ccccc12)C(=O)O (stereo not given) | > 100 µM (inactive) | > 100 µM (inactive) | 58.3 µM (inactive) | 77.1 µM (inactive) | 49 µM (inactive) | 63 µM (inactive) | > 100 µM (inactive) | > 100 µM (inactive) | – | > 100 µM (inactive) | 29.9 µM (inactive) | > 100 µM (inactive) | – | 42.5 µM (inactive) | > 100 µM (inactive) | 32 µM (inactive) | 26.7 µM (inactive) | –
C1=Cc2nc1c(-c1ccccc1)c1ccc([n-]1)c(-c1ccccc1)c1nc(c(-c3ccccc3)c3ccc([n-]3)c2-c2ccccc2)C=C1.[Zn+2] | > 100 µM (inactive) | > 100 µM (inactive) | > 100 µM (inactive) | > 100 µM (inactive) | > 100 µM (inactive) | > 100 µM (inactive) | 19.9 µM (inactive) | > 100 µM (inactive) | – | > 100 µM (inactive) | > 100 µM (inactive) | > 100 µM (inactive) | > 100 µM (inactive) | > 100 µM (inactive) | > 100 µM (inactive) | > 100 µM (inactive) | 67.5 µM (inactive) | –
O=C1/C(=C/c2ccccc2)CNC/C1=C\c1ccccc1 | 4.78 µM (inactive) | 0.962 µM (active) | 2.02 µM (inactive) | 3.28 µM (inactive) | 0.643 µM (active) | 1.71 µM (inactive) | 2.84 µM (inactive) | 2.28 µM (inactive) | – | 0.36 µM (active) | 1.02 µM (active) | 0.441 µM (active) | 5.65 µM (inactive) | 1.37 µM (inactive) | 1.81 µM (inactive) | 1.91 µM (inactive) | 3.38 µM (inactive) | 0.659 µM (active)
